Patent US20250230193A1, “CYCLIC COMPOUND HAVING SELECTIVE KRAS INHIBITORY EFFECT ON HRAS AND NRAS” (CHUGAI SEIYAKU KABUSHIKI KAISHA, priority 2022, published 2025)

Legend:
[1] = target: GDP-bound HRAS wild-type protein (Homo sapiens, UniProt P01112); test: Binding to HRAS by surface plasmon resonance (SPR), Single Cycle Kinetics; details: KD ratio HRAS/KRAS, SPR, GDP-bound wild-type proteins
[2] = target: GDP-bound NRAS wild-type protein (Homo sapiens, UniProt P01111); test: Binding to NRAS by surface plasmon resonance (SPR), Single Cycle Kinetics; details: KD ratio NRAS/KRAS, SPR, GDP-bound wild-type proteins
GDP-bound NRAS wild-type protein, sequence (P01111 whole entry): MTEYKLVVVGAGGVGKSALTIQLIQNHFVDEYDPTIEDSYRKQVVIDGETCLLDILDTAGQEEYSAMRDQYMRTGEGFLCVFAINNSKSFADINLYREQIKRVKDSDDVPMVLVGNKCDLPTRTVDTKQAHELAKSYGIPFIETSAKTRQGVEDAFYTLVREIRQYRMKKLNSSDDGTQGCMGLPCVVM

GDP-bound HRAS wild-type protein, sequence (P01112 whole entry): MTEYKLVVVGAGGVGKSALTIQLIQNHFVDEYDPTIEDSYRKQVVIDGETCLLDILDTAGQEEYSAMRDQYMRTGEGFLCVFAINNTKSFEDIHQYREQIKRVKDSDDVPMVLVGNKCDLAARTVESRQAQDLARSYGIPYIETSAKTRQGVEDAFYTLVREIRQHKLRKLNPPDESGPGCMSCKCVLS

CCC[C@H]1C(=O)N[C@@H]([C@@H](C)CC)C(=O)N(C)CC(=O)N(C)[C@H]2C/C=C\CCN(C2=O)[C@@H](Cc2ccc(C)cc2)C(=O)N(C)CC(=O)N[C@@H](CCc2cc(F)c(C(F)(F)F)c(F)c2)C(=O)N2C[C@H](OCC)C[C@H]2C(=O)NC2(CC(C)(C)C2)C(=O)N(C)[C@@H](CC(C)C)C(=O)N(C)[C@H](C(=O)N(C)C)CC(=O)N1C [PP2995]
HRAS/KRAS (ratio of KD value with respect to GDP-bound HRAS wild-type protein to KD value with respect to KRAS) [1]: A (a compound having 10 or more and less than 20 is denoted as A) | NRAS/KRAS (ratio of KD value with respect to GDP-bound NRAS wild-type protein to KD value with respect to KRAS) [2]: A (a compound having 10 or more and less than 20 is denoted as A)

CCC[C@H]1C(=O)N[C@@H](C2CCCCC2)C(=O)N(C)CC(=O)N(C)[C@H]2C/C=C\CCN(C2=O)[C@@H](Cc2ccc(C(F)(F)F)cc2)C(=O)N(C)CC(=O)N[C@@H](CCc2ccc(C(F)(F)F)c(Cl)c2)C(=O)N2C[C@H](OCC)C[C@H]2C(=O)NC2(CC(C)(C)C2)C(=O)N(C)[C@@H](C2CCCC2)C(=O)N(C)[C@H](C(=O)N(C)C)CC(=O)N1C [PP2996]
HRAS/KRAS (ratio of KD value with respect to GDP-bound HRAS wild-type protein to KD value with respect to KRAS) [1]: A (a compound having 10 or more and less than 20 is denoted as A) | NRAS/KRAS (ratio of KD value with respect to GDP-bound NRAS wild-type protein to KD value with respect to KRAS) [2]: AA (a compound having 20 or more is denoted as AA)

CCC[C@H]1C(=O)N[C@@H]([C@@H](C)CC)C(=O)N(C)CC(=O)N(C)[C@H]2C/C=C\CCN(C2=O)[C@@H](Cc2ccc(C)cc2)C(=O)N(C)CC(=O)N[C@@H](CCc2cc(F)c(C(F)(F)F)c(F)c2)C(=O)N2CC3(CC3)C[C@H]2C(=O)NC2(CC(C)(C)C2)C(=O)N(C)[C@@H](CC(C)(C)C)C(=O)N(C)[C@H](C(=O)N(C)C)CC(=O)N1C [PP2997]
HRAS/KRAS (ratio of KD value with respect to GDP-bound HRAS wild-type protein to KD value with respect to KRAS) [1]: B (a compound having 3 or more and less than 10 is denoted as B) | NRAS/KRAS (ratio of KD value with respect to GDP-bound NRAS wild-type protein to KD value with respect to KRAS) [2]: A (a compound having 10 or more and less than 20 is denoted as A)

CCC[C@H]1C(=O)N[C@@H](C2CCCCC2)C(=O)N(C)CC(=O)N(C)[C@H]2C/C=C\CCN(C2=O)[C@@H](Cc2ccc(C)cc2)C(=O)N(C)CC(=O)N[C@@H](CCc2ccc(C(F)(F)F)c(Cl)c2)C(=O)N2C[C@H](OCC)C[C@H]2C(=O)NC2(CC(C)(C)C2)C(=O)N(C)[C@@H](C2CCCC2)C(=O)N(C)[C@H](C(=O)N(C)C)CC(=O)N1C [PP2998]
HRAS/KRAS (ratio of KD value with respect to GDP-bound HRAS wild-type protein to KD value with respect to KRAS) [1]: AA (a compound having 20 or more is denoted as AA) | NRAS/KRAS (ratio of KD value with respect to GDP-bound NRAS wild-type protein to KD value with respect to KRAS) [2]: A (a compound having 10 or more and less than 20 is denoted as A)

CCC[C@H]1C(=O)N[C@@H](C2CCCC2)C(=O)N(C)CC(=O)N(C)[C@H]2C/C=C\CCN(C2=O)[C@@H](Cc2ccc(C)cc2)C(=O)N(C)CC(=O)N[C@@H](CCc2cc(F)c(C(F)(F)F)c(F)c2)C(=O)N2CC3(CC3)C[C@H]2C(=O)NC2(CC(C)(C)C2)C(=O)N(C)[C@@H](CC(C)(C)C)C(=O)N(C)[C@H](C(=O)N(C)C)CC(=O)N1C [PP2999]
HRAS/KRAS (ratio of KD value with respect to GDP-bound HRAS wild-type protein to KD value with respect to KRAS) [1]: A (a compound having 10 or more and less than 20 is denoted as A) | NRAS/KRAS (ratio of KD value with respect to GDP-bound NRAS wild-type protein to KD value with respect to KRAS) [2]: AA (a compound having 20 or more is denoted as AA)

CCC[C@H]1C(=O)N[C@@H](C2CCOCC2)C(=O)N(C)CC(=O)N(C)[C@H]2C/C=C\CCN(C2=O)[C@@H](Cc2ccc(C(F)(F)F)cc2)C(=O)N(C)CC(=O)N[C@@H](CCc2ccc(C(F)(F)F)c(Cl)c2)C(=O)N2C[C@H](OCC)C[C@H]2C(=O)NC2(CC(C)(C)C2)C(=O)N(C)[C@@H](C2CCCC2)C(=O)N(C)[C@H](C(=O)N(C)C)CC(=O)N1C [PP3000]
HRAS/KRAS (ratio of KD value with respect to GDP-bound HRAS wild-type protein to KD value with respect to KRAS) [1]: A (a compound having 10 or more and less than 20 is denoted as A) | NRAS/KRAS (ratio of KD value with respect to GDP-bound NRAS wild-type protein to KD value with respect to KRAS) [2]: AA (a compound having 20 or more is denoted as AA)

CCC[C@H]1C(=O)N[C@@H](C2CCOCC2)C(=O)N(C)CC(=O)N(C)[C@H]2C/C=C\CCN(C2=O)[C@@H](Cc2ccc(C)cc2)C(=O)N(C)CC(=O)N[C@@H](CCc2ccc(C(F)(F)F)c(Cl)c2)C(=O)N2C[C@H](OCC)C[C@H]2C(=O)NC2(CC(C)(C)C2)C(=O)N(C)[C@@H](C2CCCC2)C(=O)N(C)[C@H](C(=O)N(C)C)CC(=O)N1C [PP3002]
HRAS/KRAS (ratio of KD value with respect to GDP-bound HRAS wild-type protein to KD value with respect to KRAS) [1]: A (a compound having 10 or more and less than 20 is denoted as A) | NRAS/KRAS (ratio of KD value with respect to GDP-bound NRAS wild-type protein to KD value with respect to KRAS) [2]: A (a compound having 10 or more and less than 20 is denoted as A)

CCC[C@H]1C(=O)N[C@@H]([C@@H](C)CC)C(=O)N(C)CC(=O)N(C)[C@H]2C/C=C\CCN(C2=O)[C@@H](Cc2ccc(C)cc2)C(=O)N(C)CC(=O)N[C@@H](CCc2cc(F)c(C(F)(F)F)c(F)c2)C(=O)N2CC3(CC3)C[C@H]2C(=O)NC2(CC(C)(C)C2)C(=O)N(C)[C@@H](CC(F)(F)F)C(=O)N(C)[C@H](C(=O)N(C)C)CC(=O)N1C [PP3003]
HRAS/KRAS (ratio of KD value with respect to GDP-bound HRAS wild-type protein to KD value with respect to KRAS) [1]: A (a compound having 10 or more and less than 20 is denoted as A) | NRAS/KRAS (ratio of KD value with respect to GDP-bound NRAS wild-type protein to KD value with respect to KRAS) [2]: AA (a compound having 20 or more is denoted as AA)

CCC[C@H]1C(=O)N[C@@H](C2CCCC2)C(=O)N(C)CC(=O)N(C)[C@H]2C/C=C\CCN(C2=O)[C@@H](Cc2ccc(C)cc2)C(=O)N(C)CC(=O)N[C@@H](CCc2ccc(C(F)(F)F)c(OC)c2)C(=O)N2C[C@H](OCC)C[C@H]2C(=O)NC2(CC(C)(C)C2)C(=O)N(C)[C@@H](CC(C)(C)C)C(=O)N(C)[C@H](C(=O)N(C)C)CC(=O)N1C [PP3005]
HRAS/KRAS (ratio of KD value with respect to GDP-bound HRAS wild-type protein to KD value with respect to KRAS) [1]: B (a compound having 3 or more and less than 10 is denoted as B) | NRAS/KRAS (ratio of KD value with respect to GDP-bound NRAS wild-type protein to KD value with respect to KRAS) [2]: A (a compound having 10 or more and less than 20 is denoted as A)

CCC[C@H]1C(=O)N[C@@H]([C@@H](C)CC)C(=O)N(C)CC(=O)N(C)[C@H]2C/C=C\CCN(C2=O)[C@@H](Cc2ccc(C)cc2)C(=O)N(C)CC(=O)N[C@@H](CCc2ccc(C(F)(F)F)c(OC)c2)C(=O)N2C[C@H](OCC)C[C@H]2C(=O)NC2(CC(C)(C)C2)C(=O)N(C)[C@@H]([C@@H](C)CC)C(=O)N(C)[C@H](C(=O)N(C)C)CC(=O)N1C [PP3006]
HRAS/KRAS (ratio of KD value with respect to GDP-bound HRAS wild-type protein to KD value with respect to KRAS) [1]: A (a compound having 10 or more and less than 20 is denoted as A) | NRAS/KRAS (ratio of KD value with respect to GDP-bound NRAS wild-type protein to KD value with respect to KRAS) [2]: A (a compound having 10 or more and less than 20 is denoted as A)

CCC[C@H]1C(=O)N[C@@H]([C@@H](C)CC)C(=O)N(C)CC(=O)N(C)[C@H]2C/C=C\CCN(C2=O)[C@@H](Cc2ccc(C)cc2)C(=O)N(C)CC(=O)N[C@@H](CCc2ccc(C(F)(F)F)c(OC)c2)C(=O)N2C[C@H](OCC)C[C@H]2C(=O)NC2(CC(C)(C)C2)C(=O)N(C)[C@@H](CC(F)(F)F)C(=O)N(C)[C@H](C(=O)N(C)C)CC(=O)N1C [PP3007]
HRAS/KRAS (ratio of KD value with respect to GDP-bound HRAS wild-type protein to KD value with respect to KRAS) [1]: A (a compound having 10 or more and less than 20 is denoted as A) | NRAS/KRAS (ratio of KD value with respect to GDP-bound NRAS wild-type protein to KD value with respect to KRAS) [2]: A (a compound having 10 or more and less than 20 is denoted as A)

CCC[C@H]1C(=O)N[C@@H]([C@@H](C)CC)C(=O)N(C)CC(=O)N(C)[C@H]2C/C=C\CCN(C2=O)[C@@H](Cc2ccc(C)cc2)C(=O)N(C)CC(=O)N[C@@H](CCc2ccc(C(F)(F)F)c(OC)c2)C(=O)N2C[C@H](OCC)C[C@H]2C(=O)NC2(CC(C)(C)C2)C(=O)N(C)[C@@H](CC(C)C)C(=O)N(C)[C@H](C(=O)N(C)C)CC(=O)N1C [PP3008]
HRAS/KRAS (ratio of KD value with respect to GDP-bound HRAS wild-type protein to KD value with respect to KRAS) [1]: A (a compound having 10 or more and less than 20 is denoted as A) | NRAS/KRAS (ratio of KD value with respect to GDP-bound NRAS wild-type protein to KD value with respect to KRAS) [2]: A (a compound having 10 or more and less than 20 is denoted as A)

CCC[C@H]1C(=O)N[C@@H]([C@@H](C)CC)C(=O)N(C)CC(=O)N(C)[C@H]2C/C=C\CCN(C2=O)[C@@H](Cc2ccc(C)cc2)C(=O)N(C)CC(=O)N[C@@H](CCc2ccc(C(F)(F)F)c(OC)c2)C(=O)N2CC3(CC3)C[C@H]2C(=O)NC2(CC(C)(C)C2)C(=O)N(C)[C@@H](CC(C)(C)C)C(=O)N(C)[C@H](C(=O)N(C)C)CC(=O)N1C [PP3009]
HRAS/KRAS (ratio of KD value with respect to GDP-bound HRAS wild-type protein to KD value with respect to KRAS) [1]: A (a compound having 10 or more and less than 20 is denoted as A) | NRAS/KRAS (ratio of KD value with respect to GDP-bound NRAS wild-type protein to KD value with respect to KRAS) [2]: A (a compound having 10 or more and less than 20 is denoted as A)

CCC[C@H]1C(=O)N[C@@H](C2CCCC2)C(=O)N(C)CC(=O)N(C)[C@H]2C/C=C\CCN(C2=O)[C@@H](Cc2ccc(C)cc2)C(=O)N(C)CC(=O)N[C@@H](CCc2ccc(C(F)(F)F)c(OC)c2)C(=O)N2CC3(CC3)C[C@H]2C(=O)NC2(CC(C)(C)C2)C(=O)N(C)[C@@H](CC(C)(C)C)C(=O)N(C)[C@H](C(=O)N(C)C)CC(=O)N1C [PP3010]
HRAS/KRAS (ratio of KD value with respect to GDP-bound HRAS wild-type protein to KD value with respect to KRAS) [1]: B (a compound having 3 or more and less than 10 is denoted as B) | NRAS/KRAS (ratio of KD value with respect to GDP-bound NRAS wild-type protein to KD value with respect to KRAS) [2]: B (a compound having 3 or more and less than 10 is denoted as B)

CCC[C@H]1C(=O)N[C@@H]([C@@H](C)CC)C(=O)N(C)CC(=O)N(C)[C@H]2C/C=C\CCN(C2=O)[C@@H](Cc2ccc(C)cc2)C(=O)N(C)CC(=O)N[C@@H](CCc2ccc(C(F)(F)F)c(OC)c2)C(=O)N2CC3(CC3)C[C@H]2C(=O)NC2(CC(C)(C)C2)C(=O)N(C)[C@@H]([C@@H](C)CC)C(=O)N(C)[C@H](C(=O)N(C)C)CC(=O)N1C [PP3011]
HRAS/KRAS (ratio of KD value with respect to GDP-bound HRAS wild-type protein to KD value with respect to KRAS) [1]: B (a compound having 3 or more and less than 10 is denoted as B) | NRAS/KRAS (ratio of KD value with respect to GDP-bound NRAS wild-type protein to KD value with respect to KRAS) [2]: A (a compound having 10 or more and less than 20 is denoted as A)

CCC[C@H]1C(=O)N[C@@H]([C@@H](C)CC)C(=O)N(C)CC(=O)N(C)[C@H]2C/C=C\CCN(C2=O)[C@@H](Cc2ccc(C)cc2)C(=O)N(C)CC(=O)N[C@@H](CCc2ccc(C(F)(F)F)c(OC)c2)C(=O)N2CC3(CC3)C[C@H]2C(=O)NC2(CC(C)(C)C2)C(=O)N(C)[C@@H](CC(F)(F)F)C(=O)N(C)[C@H](C(=O)N(C)C)CC(=O)N1C [PP3012]
HRAS/KRAS (ratio of KD value with respect to GDP-bound HRAS wild-type protein to KD value with respect to KRAS) [1]: A (a compound having 10 or more and less than 20 is denoted as A) | NRAS/KRAS (ratio of KD value with respect to GDP-bound NRAS wild-type protein to KD value with respect to KRAS) [2]: A (a compound having 10 or more and less than 20 is denoted as A)
